# Paper PMC6563099, “Novel Thienopyrimidine Derivative, RP-010, Induces β-Catenin Fragmentation and Is Efficacious against Prostate Cancer Cells” (Cancers, 2019)
# Like-named read-outs stand apart in the source and are kept apart here.
# Assays:
# [1] = test system: DU145; experiment: MTT cytotoxicity assay, DU145 prostate cancer cells; assay type: cell-based; settings: means ± SDs of three independent experiments, read-out: IC50 ± SD, Prostate Cancer Cells, DU145
# Description: (§1) All the cells were cultured as adherent monolayers in culture flasks, and were used to determine the anti-cancer efficacy of RP-010. DMEM supplemented with 4.5 g of glucose, 10% fetal bovine serum (FBS) and 1% penicillin/streptomycin, was used to augment cell growth. Finally, the cells were incubated and grown in a humidified incubator containing 5% CO2 at 37 °C [50]. […] Cells were obtained from frozen stocks and cell passaging (up to P4) was performed at 80% cell confluency, using PBS and trypsin + 2.2-mM EDTA.
# (§2) MTT assays were used to determine the cytotoxicity of the RP compounds, to PC cell lines, as previously described.
# [2] = test system: CHO; experiment: MTT cytotoxicity assay, CHO cells; assay type: cell-based; settings: Cricetulus griseus, Chinese hamster ovarian cell line, means ± SDs of three independent experiments, read-out: IC50 ± SD, Non-Prostate Cells, CHO
# Description: as §1, §2
# [3] = test system: DU145; experiment: Colony formation assay, DU145; assay type: cell-based; settings: 1 or 2 µM, vs vehicle
# Description: This assay was performed as previously described. The DU145 and PC-3 cells were incubated with RP-010 (1 or 2 µM) for 24 h. […], the medium was discarded and cells were trypsinized with 0.25% trypsin, 2.21-mM EDTA, and then harvested, counted, and reseeded in 6-well plates at a low density (500 cell/well). The cells were allowed to form colonies for 10–14 days at 37 °C, with the medium being changed every other day. Subsequently, methanol was used to fix the colonies formed in each plate, followed by staining the colonies with 0.1% crystal violet dye for 30 min. Finally, colonies were viewed and counted under an EVOS microscope (Themo Fisher Scientific, Wayne, MI, USA). The colony formation rate equation was applied for each compound: Colony formation rate = the number of colonies/numbers of seeded cells × 100%.
# [4] = test system: DU145; experiment: Time-dependent cell confluence (live cell imaging), DU145; assay type: cell-based
# Description: The cytotoxicity of RP-010, over time, was determined using DU145 cells. The cells were seeded and incubated as previously described. The DU145 cells were incubated with vehicle or RP-010 for 72 h. The pictures were taken over time, at a snapshot interval of 15 min, from the same spot of the flask using the CytoSMART™ Lux 10X system (LONZA biosciences Walkersville, MD, USA) for live cell imaging.
# [5] = test system: DU145; experiment: Cell cycle analysis (PI, flow cytometry), DU145; assay type: cell-based; settings: vs vehicle
# Description: The effect of RP-010 on the cell cycle phases and function was determined using cell cycle analysis with PI staining, followed by flow cytometry. The cells were incubated with either vehicle or RP-010 (0.5, 1 or 2 µM) for 24 h. After incubation overnight, the cells were collected, washed and resuspended as an ice-cold PBS suspension. The DNA was stained with PI for at least 15 min on ice. A FACS Calibur flow cytometer from BD Biosciences (San Jose, CA, USA) was used to determine the distribution of the cells following incubation with vehicle or RP-010. Finally, the data were viewed and analysed using FlowJo v10.2 software from FlowJo LLC (Ashland, OR, USA).
# [6] = test system: PC-3; experiment: Oxidative stress (H2DCFDA fluorescence), PC-3; assay type: cell-based; settings: 1, 2 and 4 µM, 24 h, vs vehicle
# Description: The compound 2′,7′-dichlorofluorescin (H2DCFDA) was used to detect changes in the oxidative stress status, as previously described in PC-3 and DU145. […] The cells were then washed 3 times with 1× PBS for 5 min each. The level of reactive oxygen species was then measured, based on the fluorescence level of oxidized H2DCFDA dye (excitation at 485 nm and emission at 535 nm), using an EVOS digital fluorescent microscope at 40×.
# [7] = test system: Bak, Bax, Bcl2, caspase 3, PARP, cytochrome c in DU145 cells; experiment: Western analysis of apoptosis-regulating proteins, DU145; assay type: cell-based; settings: 1 or 2 μM, 24 h
# Description: DU145 cells were incubated with RP-010 ((1 or 2 µM) for 24 h. Thereafter, the cells were subjected to a two-step lysis process to extract and separate the cytosolic and the nuclear proteins, as previously described. Next, protein separation for both cytosolic and nuclear proteins was achieved by electrophoresing the samples through acrylamide SDS-PAGE gels, followed by transfer to a PVDF membrane. The PVDF membrane was then incubated overnight with the following primary antibodies: rabbit α-tubulin, 1:4000 dilution, rabbit BAX (1:1000), rabbit BAK (1:1000), rabbit cytochrome c (1:1000), rabbit PARP (1:5000), rabbit β-Catenin (1:4000), rabbit DVL3 (1:4000), rabbit LRP-6 (1:1000), rabbit P-LRP-6 (1:1000), rabbit c-Myc (1: 4000), rabbit cyclin B1 (1:2000), rabbit Wnt 5a (1:1000), rabbit naked 1 and naked 2 (1:1000), mouse E-cadherin (1:4000), mouse N-cadherin (1:4000), mouse β-actin (1:5000) and rabbit histone (1:3000). Finally, protein expression levels were determined as described previously. In the Figure 3, Figure 5 and Figure S8, the protein blots above β-actin were cytosolic lysates, while all the proteins below β-actin and above histones (loading controls) were nuclear lysates.
# [8] = test system: DU145; experiment: Wound healing assay, DU145; assay type: cell-based; settings: 0.5, 1, 2 or 4 µM, 12-48 h, vs vehicle
# Description: This assay was conducted using DU145 and PC-3 cells as previously described. Upon confluence, 200 μL sterile tips were used to create a wound by gently scratching the complete cell monolayer. Sterile PBS was used to wash the cells several times to remove any floating cells. Different concentrations of the test compound were prepared in the culture media and added immediately after wound formation. The closure of the wound was observed by taking pictures at different time points by the EVOS microscope (Thermo Fisher Scientific, Wayne, MI, USA). Finally, the area of the wounds, at different time points, was calculated using Image J software (NIH, Bethesda, MD, USA).
# [9] = test system: HCT116; set-up: method as in PMID 28759878; settings: colon cancer cell line; cited from earlier work
smiles,measurement,setting,value
COc1ccc(-c2nc3sc4c(c3c(=O)[nH]2)CCCC4)cc1 [RP10],IC50,"[1]; Homo sapiens, DU-145, MTT assay",< 1000 nM
same,IC50,[1]; MTT assay,500 ± 200 nM
same,IC50,[2],14000 ± 1300 nM
same,Size of the colonies,[3],significantly decreased
same,Colony formation,[3]; p < 0.01,significantly decreased
same,Cell growth over time (confluence),"[4]; 0.5 µM, after 24 h of incubation, p < 0.05",significantly decreased
same,Cell growth over time (confluence),"[4]; 1 µM, after 12 h of incubation, p < 0.01",significantly decreased
same,"Cell cycle distribution, G1 phase","[5]; 0.5, 1 or 2 µM",significant shift from G1 phase
same,"Cell cycle distribution, G2 phase","[5]; 1 or 2 µM, p < 0.05",significantly accumulated in the G2 phase
same,Reactive oxygen species (ROS) level,[6],elevated ROS levels
same,Expression of Bax,[7],did not significantly alter
same,Levels of cytochrome c,[7],did not significantly alter
same,Levels of total cytosolic PARP,[7],significantly reduced
same,Cleavage of caspase-3,[7]; p < 0.001,significantly increased
same,Expression of Bcl2,[7]; p < 0.01,significantly downregulated
same,Levels of cleaved nuclear PARP,[7]; p < 0.01,increased
same,Levels of cleaved cytosolic PARP,[7]; p < 0.05,significantly increased
same,"Expression level of Bak, increase","[7]; vs vehicle, p < 0.01",≥ 2 fold
same,Wound healing (cell migration),[8],significant decrease
same,IC50,[9],600 ± 300 nM
